Reference: patent US11414450B1, “Aminoglycosides and uses thereof” (REVAGENIX, INC., priority 2017, dated 2022)
≈ marks a conversion by molar mass, not a printed value.

What was measured:
P. aeruginosa ATCC 27853 = test: MIC broth microdilution, P. aeruginosa ATCC 27853; format: cell-based; conditions: for MIC: Pseudomonas aeruginosa, ATCC27853, P. aeruginosa ATCC 27853, contains aph(3′)-IIb, read-out: Geometric Mean MIC values, P. aeruginosa ATCC 27853
Procedure: (§1) Minimum inhibitory concentrations for the example compounds herein are determined by the broth microdilution method in accordance with the Clinical and Laboratory Standards Institute (CLSI) guidelines. In brief, organism suspensions are adjusted to a 0.5 McFarland standard to yield a final inoculum between 3×10^5 and 7×10^5 colony-forming units (CFU)/mL. Compound dilutions and inocula are made in sterile, cation adjusted Mueller-Hinton Broth (Beckton Dickinson). The inoculum is prepared by suspension of a colony from an agar plate that is prepared the previous day. Bacteria are suspended in sterile saline and added to each assay plate to obtain a final concentration of 5×10^5 CFU/mL. An inoculum volume of 100 μL is added to wells containing 100 μL of broth with 2-fold serial dilutions of the compound. All inoculated microdilution trays are incubated in ambient air at 35° C. for 18-24 hours. Following incubation, the lowest concentration of the compound that prevents visible growth (OD 600 nm<0.05) is recorded as the MIC. […] Performance of the assay is monitored by the use of laboratory quality-control strains and a compound with a defined MIC spectrum (such as levofloxacin), in accordance with CLSI guidelines. Compounds are tested against multiple microbiologic panels. Panels include: 1) a multi-species primary screening panel that includes multiple defined AG-R mechanisms; 2) a panel of isogenic strains carrying different common mechanisms of AG-R that allows characterization of the SAR for AMEs, RMTs, and entry and efflux resistance mechanisms; and 3) panels of recent clinical isolates selected from Phase 3 studies and ongoing global surveillance.

[1] = system: P. aeruginosa efflux parent; test: MIC broth microdilution, P. aeruginosa efflux parent strain; format: cell-based; conditions: for MIC: Pseudomonas aeruginosa, P. aeruginosa efflux parent strain, read-out: Geometric Mean MIC values, P. aeruginosa efflux parent
Procedure: as §1

[2] = system: P. aeruginosa Δefflux (MexAB-OprM, MexCD-OprJ, MexEF-OprN knocked out); test: MIC broth microdilution, P. aeruginosa Δefflux strain; format: cell-based
Procedure: as §1

translation = test: Translation Inhibition Assay; format: biochemical
Description: Biological Example 2: Translation Inhibition Assay

E. coli ATCC 25922 = test: Minimum inhibitory concentration (broth microdilution, CLSI), E. coli ATCC 25922; format: cell-based; conditions: Table 1; geometric mean
Procedure: as §1

E. coli efflux parent = test: MIC broth microdilution, E. coli efflux parent strain; format: cell-based; conditions: Table 1; geometric mean
Procedure: as §1

[3] = system: E. coli Δefflux (tolC efflux pump knocked-out); test: MIC broth microdilution, E. coli Δefflux strain (tolC knocked out); format: cell-based; conditions: Table 1
Procedure: as §1

[4] = Table 2, strain contains aph(3′)-IIb
[5] = Table 2, MexEF-OprN efflux pumps knocked out
[6] = P. aeruginosa Δefflux, MexEF-OprN efflux pumps knocked out
[7] = Table 1, MexEF-OprN efflux pumps knocked out

SMILES	Geometric Mean MIC values, P. aeruginosa ATCC 27853 (P. aeruginosa ATCC 27853; [4]) [µg/mL]	Geometric Mean MIC values, P. aeruginosa efflux parent ([1]; Table 2) [µg/mL]	Geometric Mean MIC values, P. aeruginosa Δefflux [2, 5] [µg/mL]	IC50 (translation; Table 2) [nM]	also measured
CCC(N)C1CCC(N)C(OC2C(N)CC(N)C(O)C2OC2OC(CO)C(OC3OC(CN)C(O)C(O)C3N)C2O)O1 (stereo not shown) [drawing 876]	1.4	2	0.5	32	
NCC1OC(OC2C(N)CC(N)C(O)C2OC2OC(CO)C(OC3OC(CN)C(O)C(O)C3N)C2O)C(N)CC1O (stereo not shown) [drawing 880, reference compound]	0.25	0.5	0.25	8.5	
CO[C@@H]1[C@@H](O[C@@H]2O[C@H](CO)[C@@H](O[C@H]3O[C@@H](CN)[C@@H](O)[C@H](O)[C@H]3N)[C@H]2O)[C@H](O[C@H]2O[C@H](CN)CC[C@H]2N)[C@@H](N)C[C@H]1N [drawing 891]					MIC (P. aeruginosa ATCC 27853): 1 µg/mL (≈ 1.68 µM); MIC [1]: 1 µg/mL (≈ 1.68 µM); Geometric Mean MIC values, P. aeruginosa Δefflux [2, 6]: 0.25 µg/mL; IC50 (translation; translation inhibition assay): 5.7 nM
NCC1OC(OC2C(CO)OC(OC3C(O)C(N)CC(N)C3OC3OC(CN)C(O)C(F)C3N)C2O)C(N)C(O)C1O (stereo not shown) [drawing 882]	1	2	0.5	10	
NC[C@@H]1CC[C@@H](N)[C@@H](O[C@@H]2[C@@H](N)[C@H](O)[C@@H](N)[C@H](O)[C@H]2O[C@@H]2O[C@H](CO)[C@@H](O[C@H]3O[C@@H](CN)[C@@H](O)[C@H](O)[C@H]3N)[C@H]2O)O1 [drawing 890]					MIC (P. aeruginosa ATCC 27853): 0.5 µg/mL (≈ 0.835 µM); MIC [1]: 1 µg/mL (≈ 1.67 µM); Geometric Mean MIC values, P. aeruginosa Δefflux [2, 6]: 0.25 µg/mL; IC50 (translation; translation inhibition assay): 7.9 nM
CC(N)C1CCC(N)C(OC2C(N)CC(N)C(O)C2OC2OC(CO)C(OC3OC(CN)C(O)C(O)C3N)C2O)O1 (stereo not shown) [drawing 849]					Geometric Mean MIC values, E. coli ATCC 25922 (E. coli ATCC 25922): 1.6 µg/mL; Geometric Mean MIC values, E. coli efflux parent (E. coli efflux parent): 1 µg/mL; Geometric Mean MIC values, E. coli Δefflux [3]: 1 µg/mL; Geometric Mean MIC values, P. aeruginosa ATCC 27853 (P. aeruginosa ATCC 27853; Table 1, geometric mean): 0.71 µg/mL; Geometric Mean MIC values, P. aeruginosa efflux parent ([1]; Table 1, geometric mean): 1 µg/mL; Geometric Mean MIC values, P. aeruginosa Δefflux [2, 7]: 0.5 µg/mL; IC50 (translation; Table 1): 14 nM
NC[C@@H]1O[C@H](O[C@H]2[C@@H](O)[C@H](O[C@@H]3[C@@H](O)[C@H](N)C[C@H](N)[C@H]3O[C@H]3O[C@H](CN)[C@@H](O)C(F)(F)[C@H]3N)O[C@@H]2CO)[C@H](N)[C@@H](O)[C@@H]1O	4	8	1	62	
CCC(N)C1CCC(N)C(OC2C(N)CC(N)C(O)C2OC2OC(CO)C(OC3OC(CN)C(O)C(O)C3N)C2O)O1 (stereo not shown) [drawing 877]	1	2	0.5	26	
CC(N)C1CCC(N)C(OC2C(N)CC(N)C(O)C2OC2OC(CO)C(OC3OC(CN)C(O)C(O)C3N)C2O)O1 (stereo not shown) [drawing 850]					Geometric Mean MIC values, E. coli ATCC 25922 (E. coli ATCC 25922): 2.5 µg/mL; Geometric Mean MIC values, E. coli efflux parent (E. coli efflux parent): 1 µg/mL; Geometric Mean MIC values, E. coli Δefflux [3]: 1 µg/mL; Geometric Mean MIC values, P. aeruginosa ATCC 27853 (P. aeruginosa ATCC 27853; Table 1, geometric mean): 2 µg/mL; Geometric Mean MIC values, P. aeruginosa efflux parent ([1]; Table 1, geometric mean): 4 µg/mL; Geometric Mean MIC values, P. aeruginosa Δefflux [2, 7]: 0.5 µg/mL; IC50 (translation; Table 1): 14 nM
CC(N)C1CCC(N)C(OC2C(N)CC(N)C(O)C2OC2OC(CO)C(OC3OC(CN)C(O)C(O)C3N)C2O)O1 (stereo not shown) [drawing 874]	2	4	0.5	14	
CCC(N)C1CCC(N)C(OC2C(N)CC(N)C(O)C2OC2OC(CO)C(OC3OC(CN)C(O)C(O)C3N)C2O)O1 (stereo not shown) [drawing 852]					Geometric Mean MIC values, E. coli ATCC 25922 (E. coli ATCC 25922): 1 µg/mL; Geometric Mean MIC values, E. coli efflux parent (E. coli efflux parent): 2 µg/mL; Geometric Mean MIC values, E. coli Δefflux [3]: 1 µg/mL; Geometric Mean MIC values, P. aeruginosa ATCC 27853 (P. aeruginosa ATCC 27853; Table 1, geometric mean): 1 µg/mL; Geometric Mean MIC values, P. aeruginosa efflux parent ([1]; Table 1, geometric mean): 2 µg/mL; Geometric Mean MIC values, P. aeruginosa Δefflux [2, 7]: 0.5 µg/mL; IC50 (translation; Table 1): 26 nM
NCC1OC(OC2C(CO)OC(OC3C(O)C(N)CC(N)C3OC3OC(CN)C(O)C(F)C3N)C2O)C(N)C(O)C1O (stereo not shown) [drawing 884]	4	8	2	100	
NCC1CCC(N)C(OC2C(N)CC(N)C(O)C2OC2OC(CO)C(OC3OC(CN)C(O)C(O)C3N)C2O)O1 (stereo not shown) [drawing 872, reference compound]	0.53	0.73	0.4	10	
NCC1OC(OC2C(CO)OC(OC3C(O)C(N)CC(N)C3OC3OC(C4(N)CC4)CCC3N)C2O)C(N)C(O)C1O (stereo not shown) [drawing 875]	2	2	0.25	7.5	
NCC1OC(OC2C(CO)OC(OC3C(O)C(N)CC(N)C3OC3OC(CN)C(O)C(F)C3N)C2O)C(N)C(O)C1O (stereo not shown) [drawing 853]					Geometric Mean MIC values, E. coli ATCC 25922 (E. coli ATCC 25922): 2 µg/mL; Geometric Mean MIC values, E. coli efflux parent (E. coli efflux parent): 2 µg/mL; Geometric Mean MIC values, E. coli Δefflux [3]: 1 µg/mL; Geometric Mean MIC values, P. aeruginosa ATCC 27853 (P. aeruginosa ATCC 27853; Table 1, geometric mean): 1 µg/mL; Geometric Mean MIC values, P. aeruginosa efflux parent ([1]; Table 1, geometric mean): 2 µg/mL; Geometric Mean MIC values, P. aeruginosa Δefflux [2, 7]: 0.5 µg/mL; IC50 (translation; Table 1): 10 nM
NCC1OC(OC2C(CO)OC(OC3C(O)C(N)CC(N)C3OC3OC(CN)C(O)C(F)(F)C3N)C2O)C(N)C(O)C1O (stereo not shown) [drawing 854]					Geometric Mean MIC values, E. coli ATCC 25922 (E. coli ATCC 25922): 4 µg/mL; Geometric Mean MIC values, E. coli efflux parent (E. coli efflux parent): 4 µg/mL; Geometric Mean MIC values, E. coli Δefflux [3]: 2 µg/mL; Geometric Mean MIC values, P. aeruginosa ATCC 27853 (P. aeruginosa ATCC 27853; Table 1, geometric mean): 4 µg/mL; Geometric Mean MIC values, P. aeruginosa efflux parent ([1]; Table 1, geometric mean): 8 µg/mL; Geometric Mean MIC values, P. aeruginosa Δefflux [2, 7]: 1 µg/mL; IC50 (translation; Table 1): 63 nM
CCC(N)C1CCC(N)C(OC2C(N)CC(N)C(O)C2OC2OC(CO)C(OC3OC(CN)C(O)C(O)C3N)C2O)O1 (stereo not shown) [drawing 851]					Geometric Mean MIC values, E. coli ATCC 25922 (E. coli ATCC 25922): 2 µg/mL; Geometric Mean MIC values, E. coli efflux parent (E. coli efflux parent): 2 µg/mL; Geometric Mean MIC values, E. coli Δefflux [3]: 1 µg/mL; Geometric Mean MIC values, P. aeruginosa ATCC 27853 (P. aeruginosa ATCC 27853; Table 1, geometric mean): 2 µg/mL; Geometric Mean MIC values, P. aeruginosa efflux parent ([1]; Table 1, geometric mean): 2 µg/mL; Geometric Mean MIC values, P. aeruginosa Δefflux [2, 7]: 0.5 µg/mL; IC50 (translation; Table 1): 32 nM
NCC1OC(OC2C(CO)OC(OC3C(O)C(N)CC(N)C3OC3OC(CN)C(O)C(F)C3O)C2O)C(N)C(O)C1O (stereo not shown) [drawing 883]	2	4	0.5	24	
NC[C@@H]1O[C@H](O[C@H]2[C@@H](O)[C@H](O[C@@H]3[C@@H](O)[C@H](N)C[C@H](N)[C@H]3O[C@H]3O[C@H](CN)[C@@H](O)[C@H](O)[C@H]3N)O[C@@H]2CO)[C@H](N)[C@@H](O)[C@@H]1O [drawing 881, neomycin, reference compound]	1	6.8	2.2	7.3	
NC[C@@H]1O[C@H](O[C@H]2[C@@H](O)[C@H](O[C@@H]3[C@@H](O)[C@H](N)C[C@H](N)[C@H]3O[C@H]3O[C@H](CN)C(F)(F)[C@H](O)[C@H]3N)O[C@@H]2CO)[C@H](N)[C@@H](O)[C@@H]1O	64	8	1	13	
CC(N)C1CCC(N)C(OC2C(N)CC(N)C(O)C2OC2OC(CO)C(OC3OC(CN)C(O)C(O)C3N)C2O)O1 (stereo not shown) [drawing 873]	0.84	1.2	0.42	12	
NC[C@@H]1O[C@H](O[C@H]2[C@@H](O)[C@H](O[C@@H]3[C@@H](O)[C@H](N)C[C@H](N)[C@H]3O[C@H]3O[C@H](CN)[C@H](O)[C@H](F)[C@H]3N)O[C@@H]2CO)[C@H](N)[C@@H](O)[C@@H]1O	1	2	0.5	18	
